Measurements: patent US4443605A, “7β-Arylalkyl-6α, 7 α-oxymethylene-3-methoxy or 3-hydroxy-4, 5α-epoxy-17 methyl or 17-cycloalkyl-methyl morphinans” (Miles Laboratories, Inc., priority 1982, dated 1984)
Like-named read-outs stand apart in the source and are kept apart here.

System: mice
Assay: Acetic Acid Induced Mouse Writhing Test
Format: in vivo, mouse (male CD-1)
Details: for ED50: sc
Method: Analgesic effects of the test compounds were determined in mice by use of the acetic acid induced writhing test described by B. A. Whittle, Brit. J. Pharmacol., 22:246 (1964). In this test, at least 3 groups of 5 male CD-1 mice each were given subcutaneous doses of the test drug dissolved in distilled water. In all cases, 0.4 mL of a 0.5% v/v acetic acid in distilled water solution was administered intraperitoneally 15 min. post drug. The number of writhes in a 20 min. interval beginning 5 min. after the acetic acid injection were determined and compared with the number of writhes in a control group which had received only acetic acid.
Percent inhibition of writhing was calculated as: [formula]
The ED50 dose, i.e., the dose required to reduce the number of writhes by 50%, was determined graphically from a plot of % inhibition as a probit verus log dose. […] See Lichtfield, J. T. and Wilcoxon, F., J. Pharmacol. Exp. Ther., 96, 99-113 (1949).
The results of this testing, both in terms of μ mole/kg and mg/kg of the compound tested, are set out in table I.

[1] = 0.25 h, Analgesic Activity In Mouse Writhing Assay - Subcutaneous Inj., acetic acid i.p. 15 min post drug, * = d-tartrate salt, read-out: ED50 (mg/kg)
[2] = 0.25 h, Analgesic Activity In Mouse Writhing Assay - Subcutaneous Inj., acetic acid i.p. 15 min post drug, * = d-tartrate salt, read-out: ED50 (μmole/kg)

SMILES | activity in the acetic acid induced writhing assay (at 10 mg/kg) | ED50 [1] | ED50 [2] | ED50 (Mus musculus, acetic acid induced writhing assay, contrasted with compound 8, read-out: ED50 in the same assay)
COc1ccc2c3c1O[C@H]1[C@@H]4OC[C@]4(CCCCc4ccccc4)C[C@H]4[C@@H](C2)N(C)CC[C@@]341 [Compound 8, 4,5α-Epoxy-3-methoxy-17-methyl-7α-(4-phenylbutyl)-6β,7β-(oxymethylene)-morphinan] | inactive |  |  | 
COc1ccc2c3c1O[C@H]1[C@H]4OC[C@@]4(CCc4ccccc4)C[C@H]4[C@@H](C2)N(C)CC[C@@]341 [Compound 17c] |  | 0.5 mg/kg | 0.9 µmol/kg | 
COc1ccc2c3c1O[C@H]1[C@H]4OC[C@@]4(CCCc4ccccc4)C[C@H]4[C@@H](C2)N(C)CC[C@@]341 [Compound 17d] |  | 0.027 mg/kg | 0.046 µmol/kg | 
COc1ccc2c3c1O[C@H]1[C@H]4OC[C@@]4(CCCCc4ccccc4)C[C@H]4[C@@H](C2)N(C)CC[C@@]341 [Compound 17e] |  | 0.0028 mg/kg | 0.005 µmol/kg | 0.003 mg/kg
COc1ccc2c3c1O[C@H]1[C@H]4OC[C@@]4(CCCCCc4ccccc4)C[C@H]4[C@@H](C2)N(C)CC[C@@]341 [Compound 17f] |  | 0.82 mg/kg | 1.3 µmol/kg | 
CN1CC[C@]23c4c5ccc(O)c4O[C@H]2[C@H]2OC[C@@]2(CCc2ccccc2)C[C@H]3[C@H]1C5 [Compound 20c] |  | 0.024 mg/kg | 0.048 µmol/kg | 
CN1CC[C@]23c4c5ccc(O)c4O[C@H]2[C@H]2OC[C@@]2(CCCc2ccccc2)C[C@H]3[C@H]1C5 [Compound 20d] |  | 0.011 mg/kg | 0.019 µmol/kg | 
CN1CC[C@]23c4c5ccc(O)c4O[C@H]2[C@H]2OC[C@@]2(CCCCc2ccccc2)C[C@H]3[C@H]1C5 [Compound 20e] |  | 0.014 mg/kg | 0.024 µmol/kg | 
CN1CC[C@]23c4c5ccc(O)c4O[C@H]2[C@H]2OC[C@@]2(CCCCCc2ccccc2)C[C@H]3[C@H]1C5 [Compound 20f] |  | 0.017 mg/kg | 0.028 µmol/kg | 
COc1ccc2c3c1O[C@H]1[C@H]4OC[C@@]4(CCc4ccccc4)C[C@H]4[C@@H](C2)N(CC2CCC2)CC[C@@]341 [Compound 23Bc] |  | > 10 mg/kg | > 16 µmol/kg | 
COc1ccc2c3c1O[C@H]1[C@H]4OC[C@@]4(CCCc4ccccc4)C[C@H]4[C@@H](C2)N(CC2CCC2)CC[C@@]341 [Compound 23Bd] |  | 2.8 mg/kg | 4.4 µmol/kg | 
COc1ccc2c3c1O[C@H]1[C@H]4OC[C@@]4(CCCCc4ccccc4)C[C@H]4[C@@H](C2)N(CC2CCC2)CC[C@@]341 [Compound 23Be] |  | 1.8 mg/kg | 2.8 µmol/kg | 
COc1ccc2c3c1O[C@H]1[C@H]4OC[C@@]4(CCc4ccccc4)C[C@H]4[C@@H](C2)N(CC2CC2)CC[C@@]341 [Compound 23Pc] |  | 0.26 mg/kg | 0.57 µmol/kg | 
COc1ccc2c3c1O[C@H]1[C@H]4OC[C@@]4(CCCc4ccccc4)C[C@H]4[C@@H](C2)N(CC2CC2)CC[C@@]341 [Compound 23Pd] |  | 0.67 mg/kg | 1.07 µmol/kg | 
COc1ccc2c3c1O[C@H]1[C@H]4OC[C@@]4(CCCCc4ccccc4)C[C@H]4[C@@H](C2)N(CC2CC2)CC[C@@]341 [Compound 23Pe] |  | 0.39 mg/kg | 0.61 µmol/kg | 
Oc1ccc2c3c1O[C@H]1[C@H]4OC[C@@]4(CCc4ccccc4)C[C@H]4[C@@H](C2)N(CC2CCC2)CC[C@@]341 [Compound 24Bc] |  | 0.177 mg/kg | 0.39 µmol/kg | 
Oc1ccc2c3c1O[C@H]1[C@H]4OC[C@@]4(CCCc4ccccc4)C[C@H]4[C@@H](C2)N(CC2CCC2)CC[C@@]341 [Compound 24Bd] |  | 0.0375 mg/kg | 0.06 µmol/kg | 
Oc1ccc2c3c1O[C@H]1[C@H]4OC[C@@]4(CCCCc4ccccc4)C[C@H]4[C@@H](C2)N(CC2CCC2)CC[C@@]341 [Compound 24Be] |  | 0.22 mg/kg | 0.05 µmol/kg | 
Oc1ccc2c3c1O[C@H]1[C@H]4OC[C@@]4(CCc4ccccc4)C[C@H]4[C@@H](C2)N(CC2CC2)CC[C@@]341 [Compound 24Pc] |  | 0.018 mg/kg | 0.04 µmol/kg | 
Oc1ccc2c3c1O[C@H]1[C@H]4OC[C@@]4(CCCc4ccccc4)C[C@H]4[C@@H](C2)N(CC2CC2)CC[C@@]341 [Compound 24Pd] |  | 0.0015 mg/kg | 0.003 µmol/kg | 
Oc1ccc2c3c1O[C@H]1[C@H]4OC[C@@]4(CCCCc4ccccc4)C[C@H]4[C@@H](C2)N(CC2CC2)CC[C@@]341 [Compound 24Pe] |  | 0.01 mg/kg | 0.015 µmol/kg | 
